Measurements published in the supplement of paper PMC10307832.

How the values were obtained:
Assay in all cases: relative viability (nuclei count vs DMSO), 5 days (fraction); higher = more cells survive
LOU-NH91 = system: LOU-NH91
Summary of the method: (§1)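 One day after seeding in 1536-well plates, lung cancer cell lines were dosed by pin tool. Dosing was either single-drug or a fixed anchor-drug dose plus five library-drug doses (not always all listed) in √10 steps. After 5 days, nuclei were stained in one fix-and-stain step and counted on 4× images, and relative viability is the nuclei count of treated wells over that of vehicle wells, given as the median of duplicate plates.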

A-427 = system: A-427
Summary of the method: as §1

H3255 = system: H3255
Summary of the method: as §1

NCI-H441 = system: NCI-H441
Summary of the method: as §1

ChaGo-K-1 = system: ChaGo-K-1
Summary of the method: as §1

NCI-H1755 = system: NCI-H1755
Summary of the method: as §1

LK-2 = system: LK-2
Summary of the method: as §1

HCC-366 = system: HCC-366
Summary of the method: as §1

NCI-H2170 = system: NCI-H2170
Summary of the method: as §1

SK-MES-1 = system: SK-MES-1
Summary of the method: as §1

EKVX = system: EKVX
Summary of the method: as §1

NCI-H1734 = system: NCI-H1734
Summary of the method: as §1

NCI-H1975 = system: NCI-H1975
Summary of the method: as §1

EMC-BAC-2 = system: EMC-BAC-2
Summary of the method: as §1

NCI-H596 = system: NCI-H596
Summary of the method: as §1

NCI-H520 = system: NCI-H520
Summary of the method: as §1

COR-L 105 = system: COR-L 105
Summary of the method: as §1

NCI-H23 = system: NCI-H23
Summary of the method: as §1

NCI-H1666 = system: NCI-H1666
Summary of the method: as §1

PC-3 [JPC-3] = system: PC-3 [JPC-3]
Summary of the method: as §1

`O=c1cc(-c2cccc3c2Sc2ccccc2S3)oc(N2CCOCC2)c1` + CC1(C)CCC(c2ccc(Cl)cc2)=C(CN2CCN(c3ccc(C(=O)NS(=O)(=O)c4ccc(N[C@H](CCN5CCOCC5)CSc5ccccc5)c(S(=O)(=O)C(F)(F)F)c4)cc3)CC2)C1 [Navitoclax] (partner 0.5 µM) was tested, and the relative viability (LOU-NH91; first compound 0.08 µM) was 0.711, the relative viability (LOU-NH91; first compound 0.253 µM) was 0.68 and the relative viability (LOU-NH91; first compound 0.8 µM) was 0.573. For the same compound, the relative viability (LOU-NH91; first compound 2.53 µM) was 0.59, the relative viability (LOU-NH91; first compound 8 µM) was 0.705 and the relative viability (A-427; first compound 0.08 µM) was 0.962. The relative viability (A-427; first compound 0.253 µM) was 0.909, the relative viability (A-427; first compound 0.8 µM) was 1.07 and the relative viability (A-427; first compound 2.53 µM) was 0.906. For the same compound, the relative viability (A-427; first compound 8 µM) was 0.934, the relative viability (H3255; first compound 0.08 µM) was 0.55 and the relative viability (H3255; first compound 0.253 µM) was 0.468. It also gave a relative viability (H3255; first compound 0.8 µM) of 0.474, a relative viability (H3255; first compound 2.53 µM) of 0.61 and a relative viability (H3255; first compound 8 µM) of 0.698. It also gave a relative viability (NCI-H441; first compound 0.08 µM) of 1.14, a relative viability (NCI-H441; first compound 0.253 µM) of 0.909 and a relative viability (NCI-H441; first compound 0.8 µM) of 0.523. The relative viability (NCI-H441; first compound 2.53 µM) was 0.776, the relative viability (NCI-H441; first compound 8 µM) was 0.762 and the relative viability (ChaGo-K-1; first compound 0.08 µM) was 0.903. For the same compound, the relative viability (ChaGo-K-1; first compound 0.253 µM) was 1.04, the relative viability (ChaGo-K-1; first compound 0.8 µM) was 1.12 and the relative viability (ChaGo-K-1; first compound 8 µM) was 1.25. The relative viability (NCI-H1755; first compound 0.08 µM) was 1.05, the relative viability (NCI-H1755; first compound 0.253 µM) was 1.13 and the relative viability (NCI-H1755; first compound 0.8 µM) was 0.992. The relative viability (NCI-H1755; first compound 2.53 µM) was 0.988, the relative viability (NCI-H1755; first compound 8 µM) was 0.939 and the relative viability (LK-2; first compound 0.08 µM) was 0.861. The relative viability (LK-2; first compound 0.253 µM) was 1.03, the relative viability (LK-2; first compound 0.8 µM) was 0.992 and the relative viability (LK-2; first compound 2.53 µM) was 0.808. It also gave a relative viability (LK-2; first compound 8 µM) of 1.43, a relative viability (HCC-366; first compound 0.08 µM) of 0.987 and a relative viability (HCC-366; first compound 0.253 µM) of 1.19. The relative viability (HCC-366; first compound 0.8 µM) was 1.07, the relative viability (HCC-366; first compound 2.53 µM) was 0.98 and the relative viability (HCC-366; first compound 8 µM) was 0.996. It also gave a relative viability (NCI-H2170; first compound 0.08 µM) of 0.693, a relative viability (NCI-H2170; first compound 0.253 µM) of 0.749 and a relative viability (NCI-H2170; first compound 0.8 µM) of 0.642. It also gave a relative viability (NCI-H2170; first compound 2.53 µM) of 0.55, a relative viability (NCI-H2170; first compound 8 µM) of 0.519 and a relative viability (SK-MES-1; first compound 0.08 µM) of 1.1. The relative viability (SK-MES-1; first compound 0.253 µM) was 1.54, the relative viability (SK-MES-1; first compound 0.8 µM) was 1.2 and the relative viability (SK-MES-1; first compound 2.53 µM) was 1.17. It also gave a relative viability (SK-MES-1; first compound 8 µM) of 1.24, a relative viability (EKVX; first compound 0.08 µM) of 0.975 and a relative viability (EKVX; first compound 0.253 µM) of 0.998. The relative viability (EKVX; first compound 0.8 µM) was 0.888, the relative viability (EKVX; first compound 2.53 µM) was 0.954 and the relative viability (EKVX; first compound 8 µM) was 0.965. The relative viability (NCI-H1734; first compound 0.08 µM) was 0.845, the relative viability (NCI-H1734; first compound 0.253 µM) was 1.13 and the relative viability (NCI-H1734; first compound 0.8 µM) was 1.06. It also gave a relative viability (NCI-H1734; first compound 2.53 µM) of 0.818, a relative viability (NCI-H1734; first compound 8 µM) of 1.02 and a relative viability (NCI-H1975; first compound 0.08 µM) of 1.2. The relative viability (NCI-H1975; first compound 0.253 µM) was 1.4, the relative viability (NCI-H1975; first compound 0.8 µM) was 1.35 and the relative viability (NCI-H1975; first compound 2.53 µM) was 1.16. The relative viability (NCI-H1975; first compound 8 µM) was 0.997, the relative viability (EMC-BAC-2; first compound 0.08 µM) was 1.3 and the relative viability (EMC-BAC-2; first compound 0.253 µM) was 1.41. The relative viability (EMC-BAC-2; first compound 0.8 µM) was 1.37, the relative viability (EMC-BAC-2; first compound 2.53 µM) was 1.2 and the relative viability (EMC-BAC-2; first compound 8 µM) was 1.35. For the same compound, the relative viability (NCI-H596; first compound 0.08 µM) was 0.843, the relative viability (NCI-H596; first compound 0.253 µM) was 1.3 and the relative viability (NCI-H596; first compound 0.8 µM) was 1.09. For the same compound, the relative viability (NCI-H596; first compound 2.53 µM) was 1.09, the relative viability (NCI-H596; first compound 8 µM) was 1.14 and the relative viability (NCI-H520; first compound 0.08 µM) was 0.992. It also gave a relative viability (NCI-H520; first compound 0.253 µM) of 1.1, a relative viability (NCI-H520; first compound 0.8 µM) of 1.04 and a relative viability (NCI-H520; first compound 2.53 µM) of 0.993. The relative viability (NCI-H520; first compound 8 µM) was 1.2, the relative viability (COR-L 105; first compound 0.08 µM) was 0.649 and the relative viability (COR-L 105; first compound 0.253 µM) was 0.849. The relative viability (COR-L 105; first compound 0.8 µM) was 0.678, the relative viability (COR-L 105; first compound 2.53 µM) was 0.642 and the relative viability (COR-L 105; first compound 8 µM) was 0.993. It also gave a relative viability (NCI-H23; first compound 0.08 µM) of 0.829, a relative viability (NCI-H23; first compound 0.253 µM) of 1.01 and a relative viability (NCI-H23; first compound 0.8 µM) of 0.879. It also gave a relative viability (NCI-H23; first compound 2.53 µM) of 0.725, a relative viability (NCI-H23; first compound 8 µM) of 0.884 and a relative viability (NCI-H1666; first compound 0.08 µM) of 0.988. For the same compound, the relative viability (NCI-H1666; first compound 0.253 µM) was 0.976, the relative viability (NCI-H1666; first compound 0.8 µM) was 0.952 and the relative viability (NCI-H1666; first compound 2.53 µM) was 0.868. For the same compound, the relative viability (NCI-H1666; first compound 8 µM) was 0.799, the relative viability (PC-3 [JPC-3]; first compound 0.08 µM) was 0.836 and the relative viability (PC-3 [JPC-3]; first compound 0.253 µM) was 0.779. For the same compound, the relative viability (PC-3 [JPC-3]; first compound 0.8 µM) was 0.897, the relative viability (PC-3 [JPC-3]; first compound 2.53 µM) was 0.767 and the relative viability (PC-3 [JPC-3]; first compound 8 µM) was 0.992.
